ChEMBL document CHEMBL3611993, “Design, synthesis and biological activities of novel oxazolo[4,5-g]quinazolin-2(1H)-one derivatives as EGFR inhibitors” (Eur J Med Chem, 2015)
pIC50: −log10 of the molar value. Activity calls are given as the source filed them. No cut-off for these calls is given here.

How the values were obtained:
[1] = molecular target: Epidermal growth factor receptor (Homo sapiens, UniProt P00533); assay: Inhibition of EGFR (unknown origin) assessed as incorporation of 33Pi after 1 hr by ELISA
Mus musculus [2] = assay: Toxicity in mouse LLC cells allografted SCID mouse assessed as mortality at 100 mg/kg, po qd for 14 days; format: organism-based; settings: in vivo, 336 h
[3] = test system: Lewis lung carcinoma cell line; assay: Antitumor activity against mouse LLC cells allografted in SCID mouse assessed as inhibition of tumor growth at 100 mg/kg, po qd for 14 days; format: functional, organism-based
A498 = assay: Antiproliferative activity against human A498 cells expressing EGFR and Src after 48 hrs by SRB assay; format: functional, cell-based; settings: A498, 48 h
Mus musculus [4] = assay: Toxicity in mouse LLC cells allografted SCID mouse assessed as change in body weight at 100 mg/kg, po qd for 14 days; format: organism-based; settings: in vivo, 336 h
[5] = test system: Lewis lung carcinoma cell line; assay: Antitumor activity against mouse LLC cells allografted in SCID mouse assessed as extension of survival period at 100 mg/kg, po qd for 14 days; format: functional, organism-based
KB = assay: Antiproliferative activity against human KB cells expressing EGFR and Src after 48 hrs by SRB assay; format: functional, cell-based

Sequence of Epidermal growth factor receptor (P00533 whole entry): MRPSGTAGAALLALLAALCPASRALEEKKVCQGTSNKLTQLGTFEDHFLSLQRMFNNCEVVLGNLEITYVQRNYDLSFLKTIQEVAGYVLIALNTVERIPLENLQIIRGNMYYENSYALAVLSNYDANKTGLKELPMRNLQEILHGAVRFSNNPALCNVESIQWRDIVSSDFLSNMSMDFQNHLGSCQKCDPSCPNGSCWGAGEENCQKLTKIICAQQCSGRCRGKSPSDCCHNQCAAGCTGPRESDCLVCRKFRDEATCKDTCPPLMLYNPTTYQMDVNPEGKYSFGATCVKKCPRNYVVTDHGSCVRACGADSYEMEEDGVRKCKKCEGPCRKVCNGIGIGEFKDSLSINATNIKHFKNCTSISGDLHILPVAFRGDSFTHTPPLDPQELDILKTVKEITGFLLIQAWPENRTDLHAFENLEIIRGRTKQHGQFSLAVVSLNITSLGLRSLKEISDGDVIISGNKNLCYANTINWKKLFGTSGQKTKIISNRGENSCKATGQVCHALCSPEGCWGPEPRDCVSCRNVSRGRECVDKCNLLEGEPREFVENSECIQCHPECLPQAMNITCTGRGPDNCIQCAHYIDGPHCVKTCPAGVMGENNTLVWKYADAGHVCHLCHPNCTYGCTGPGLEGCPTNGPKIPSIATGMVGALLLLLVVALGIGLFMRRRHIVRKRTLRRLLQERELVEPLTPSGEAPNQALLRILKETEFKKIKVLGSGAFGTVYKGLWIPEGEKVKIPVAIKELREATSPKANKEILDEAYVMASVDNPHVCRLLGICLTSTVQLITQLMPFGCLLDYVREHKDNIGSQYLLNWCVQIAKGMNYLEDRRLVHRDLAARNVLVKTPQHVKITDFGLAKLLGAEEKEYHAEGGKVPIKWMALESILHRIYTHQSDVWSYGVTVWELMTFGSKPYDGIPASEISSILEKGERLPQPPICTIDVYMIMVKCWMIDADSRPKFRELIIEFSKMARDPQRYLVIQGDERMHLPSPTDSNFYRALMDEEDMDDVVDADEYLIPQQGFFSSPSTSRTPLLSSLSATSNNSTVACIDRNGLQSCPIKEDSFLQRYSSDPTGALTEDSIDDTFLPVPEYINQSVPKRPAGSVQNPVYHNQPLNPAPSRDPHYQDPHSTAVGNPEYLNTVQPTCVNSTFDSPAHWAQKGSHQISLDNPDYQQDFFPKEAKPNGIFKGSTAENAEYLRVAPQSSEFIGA

Compound	pIC50 [1]	pIC50 (A498)	pIC50 (KB)	also measured
CCOC(=O)CCCn1c(=O)oc2cc3ncnc(Nc4cccc(O)c4)c3cc21	8.06	5.12	5.43	Activity (Mus musculus [2]): Non-toxic; growth inhibition (GI) [3]: Active; Activity (Mus musculus [4]): Toxic; Activity [5]: inactive
COCCn1c(=O)oc2cc3ncnc(Nc4cccc(C(C)=O)c4)c3cc21	6.25			
CCOC(=O)CCCn1c(=O)oc2cc3ncnc(Nc4ccc(C(C)(C)C)cc4)c3cc21	< 5.00			
CCOC(=O)CCCn1c(=O)oc2cc3ncnc(Nc4ccc(OCc5nccc(OCC(F)(F)F)c5C)cc4)c3cc21	6.11			
CCOC(=O)CCCn1c(=O)oc2cc3ncnc(Nc4ccccc4)c3cc21	< 5.00			
C#Cc1cccc(Nc2ncnc3cc4oc(=O)n(CCOC)c4cc23)c1	6.72			
C#Cc1cccc(Nc2ncnc3cc4oc(=O)n(CCCC(=O)OCC)c4cc23)c1	5.24			
CCOC(=O)CCCn1c(=O)oc2cc3ncnc(Nc4ccc(OC(C)C)cc4)c3cc21	6.80	4.39	4.73	
CCOC(=O)CCCn1c(=O)oc2cc3ncnc(Nc4ccc(OCc5ccccc5)c(Cl)c4)c3cc21	< 5.00			
CCOC(=O)CCCn1c(=O)oc2cc3ncnc(Nc4ccc(OCc5ccc(Cl)cc5)c(Cl)c4)c3cc21	7.28			
COCCn1c(=O)oc2cc3ncnc(Nc4ccc(F)c(Cl)c4)c3cc21	6.33			
CCOC(=O)CCCn1c(=O)oc2cc3ncnc(Nc4ccc(OCc5ccccn5)cc4)c3cc21		4.33	4.78	
CCOC(=O)CCCn1c(=O)oc2cc3ncnc(N[C@H](C)c4ccccc4)c3cc21	< 5.00			
CCOC(=O)CCCn1c(=O)oc2cc3ncnc(Nc4ccc(OCC)cc4)c3cc21	< 5.00			
CCOC(=O)CCCn1c(=O)oc2cc3ncnc(Nc4ccc(F)c(Cl)c4)c3cc21	5.11			
CCOC(=O)CCCn1c(=O)oc2cc3ncnc(Nc4ccc(O)cc4)c3cc21	7.70	4.82	4.95	
CCOC(=O)CCCn1c(=O)oc2cc3ncnc(Nc4ccc(F)c(F)c4)c3cc21	6.85	4.44	4.75	
COCCn1c(=O)oc2cc3ncnc(Nc4cccc(OC(C)C)c4)c3cc21	< 5.00			
CCOC(=O)CCCn1c(=O)oc2cc3ncnc(Nc4ccc(C(=O)OCc5ccc(C#N)cc5)cc4)c3cc21	< 5.00			
CCOC(=O)CCCn1c(=O)oc2cc3ncnc(Nc4ccc(Cl)cc4)c3cc21	5.92			

Compound	pIC50 [1]	pIC50 (A498)	pIC50 (KB)	also measured
CCOC(=O)CCCn1c(=O)oc2cc3ncnc(N[C@@H](C)c4ccccc4)c3cc21	< 5.00			
COCCn1c(=O)oc2cc3ncnc(Nc4ccc(F)c(F)c4)c3cc21	7.59	4.75	5.96	
CCOC(=O)CCCn1c(=O)oc2cc3ncnc(Nc4ccc(C(=O)OCc5ccc(Cl)cc5)cc4)c3cc21		5.06	5.26	
COCCn1c(=O)oc2cc3ncnc(Nc4ccc(OCc5nccc(OCC(F)(F)F)c5C)cc4)c3cc21	6.47			
C#Cc1cccc(Nc2ncnc3cc(OCCOC)c(OCCOC)cc23)c1 [ERLOTINIB]				Activity (Mus musculus [2]): Non-toxic; growth inhibition (GI) [3]: Active
COCCn1c(=O)oc2cc3ncnc(Nc4ccc(OC)c(OC)c4)c3cc21	5.26			
CCOC(=O)CCCn1c(=O)oc2cc3ncnc(Nc4cc(C)cc(C)c4)c3cc21	5.82			
CCOC(=O)CCCn1c(=O)oc2cc3ncnc(Nc4ccc(S(N)(=O)=O)cc4)c3cc21	< 5.00	5.10	4.73	
CCOC(=O)CCCn1c(=O)oc2cc3ncnc(Nc4ccc5[nH]ncc5c4)c3cc21	6.89	4.57	4.42	
COCCn1c(=O)oc2cc3ncnc(Nc4ccc(OC)cc4)c3cc21	5.29	4.47	4.93	
CCOC(=O)CCCn1c(=O)oc2cc3ncnc(Nc4cc(C(=O)OCC)ccc4O)c3cc21	8.14	4.21	4.71	
CCOC(=O)CCCn1c(=O)oc2cc3ncnc(NCc4ccccc4)c3cc21	< 5.00			
CCOC(=O)CCCn1c(=O)oc2cc3ncnc(Nc4ccc(OCc5ccc(OC)cc5)c(Cl)c4)c3cc21	< 5.00			
CCOC(=O)CCCn1c(=O)oc2cc3ncnc(Nc4ccc(OC)c(OC)c4)c3cc21	< 5.00			
COCCn1c(=O)oc2cc3ncnc(Nc4ccc(OCc5ccc(Cl)cc5)c(Cl)c4)c3cc21	5.89	5.21	5.21	
COCCn1c(=O)oc2cc3ncnc(Nc4ccc(S(N)(=O)=O)cc4)c3cc21	< 5.00			
CCOC(=O)CCCn1c(=O)oc2cc3ncnc(Nc4ccc(C)cc4)c3cc21	< 5.00			
CCOC(=O)c1ccc(O)c(Nc2ncnc3cc4oc(=O)n(CCOC)c4cc23)c1	6.36	4.77	5.20	
COCCn1c(=O)oc2cc3ncnc(Nc4ccc(C(C)(C)C)cc4)c3cc21	< 5.00			
COCCn1c(=O)oc2cc3ncnc(Nc4ccc(Cl)cc4)c3cc21	< 5.00			
